Publication PMC8880564, “Design, Synthesis, and Biological Evaluation of a Novel VEGFR-2 Inhibitor Based on a 1,2,5-Oxadiazole-2-Oxide Scaffold with MAPK Signaling Pathway Inhibition” (Pharmaceuticals, 2022)

What was measured:
Test in all cases: NCI-60 one-dose SRB screening
Assay type in all cases: cell-based
SK-OV-3 = conditions: Homo sapiens, SK-OV-3, Ovarian Cancer, 10 µM one dose, 48 h, read-out: growth percentage
Method: (§1) The structures of the synthesized compounds 6a–h, 12a–c, 11, 13a–c, and 14a–c were submitted to the National Cancer Institute’s Developmental Therapeutics Program (NCI-DTP), and all of them were selected for preliminary in vitro anticancer activity screening against NCI-59 human cancer cell lines at a concentration of 10 µM, using the sulforhodamine B (SRB) assay to determine the growth percentage and cell viability.
(§2) The in vitro NCI-60 cell line screening assay was conducted at the National Cancer Institute (NCI), Bethesda, USA against 59 cancer cell lines representing 9 types of cancers, as reported earlier. Briefly, the human cancer cell lines were grown in RPMI 1640 medium containing 5% fetal bovine serum and 2 mM L-glutamine and inoculated into 96-well microtiter plates in 100 μL (5000 to 40,000 cells/well). Then, the plates were incubated at 37 °C, 5% CO2, 95% air, and 100% relative humidity for 24 h. After that, two plates of each cell line were fixed in situ with TCA, to represent cell population at time zero (Tz). The tested compounds were dissolved in DMSO at 400-fold and added so that the final concentration became 10 μM. The plates were then incubated for an additional 48 h followed by the addition of cold TCA to terminate the assay in case of adherent cells. Then, the cells were fixed in situ by cold 50% (w/v) TCA (50 μL; final concentration, 10% TCA) and incubated for 1 h at 4 °C. After discarding the supernatant, the plates were washed 5 times with tap water and air dried. Sulforhodamine B (SRB) solution (100 μL) at 0.4% (w/v) in 1% HOAc was added to each well, and plates were incubated for 10 min. at rt. Then, washing with 1% acetic acid was conducted 5 times to remove the unbound dye followed by air drying. After that, 10 mM trizma base was added to solubilize the bound stain, and the absorbance was read on an automated plate reader at a wavelength of 515 nm. On the other hand, the methodology for suspension cells was the same except that 50 μL of 80% TCA (final concentration, 16% TCA) was gently added to terminate the assay by fixing settled cells at the bottom of the wells. Percentage growth inhibition (GI%) was calculated as follows:
(§3) Growth percentage=Ti (test growth in the presence of compound at 10 µM )−Tz (time zero)/C (control growth)−Tz (time zero)×100 for Ti ≥ Tz;
(§4) Growth percentage=Ti (test growth in the presence of compound at 10 µM )−Tz (time zero)/Tz (time zero)×100 for Ti < Tz.
(§5) where values of 100, 40, 0, −40, and −100 mean no GI, 60% GI, no net G, 40% lethality, and all cells are dead, respectively.

ACHN = conditions: Homo sapiens, Renal Cancer, 10 µM one dose, 48 h, read-out: growth percentage
Method: as §1, §2, §3, §4, §5

OVCAR-5 = conditions: Homo sapiens, OVCAR-5, Ovarian Cancer, 10 µM one dose, 48 h, read-out: growth percentage
Method: as §1, §2, §3, §4, §5

NCI-H226 = conditions: Homo sapiens, NCI-H226, Non-Small Cell Lung Cancer, 10 µM one dose, 48 h, read-out: growth percentage
Method: as §1, §2, §3, §4, §5

COLO 205 = conditions: Homo sapiens, COLO 205, Colon Cancer, 10 µM one dose, 48 h, read-out: growth percentage
Method: as §1, §2, §3, §4, §5

CCRF-CEM = conditions: Homo sapiens, Leukemia, 10 µM one dose, 48 h, read-out: growth percentage
Method: as §1, §2, §3, §4, §5

HT29 = conditions: Homo sapiens, HT-29, HT29, Colon Cancer, 10 µM one dose, 48 h, read-out: growth percentage
Method: as §1, §2, §3, §4, §5

MDA-MB-231/ATCC = conditions: Homo sapiens, Breast Cancer, 10 µM one dose, 48 h, read-out: growth percentage
Method: as §1, §2, §3, §4, §5

OVCAR-3 = conditions: Homo sapiens, OVCAR-3, Ovarian Cancer, 10 µM one dose, 48 h, read-out: growth percentage
Method: as §1, §2, §3, §4, §5

NCI-H322M = conditions: Homo sapiens, Non-Small Cell Lung Cancer, 10 µM one dose, 48 h, read-out: growth percentage
Method: as §1, §2, §3, §4, §5

CAKI-1 = conditions: Homo sapiens, CAKI-1, Renal Cancer, 10 µM one dose, 48 h, read-out: growth percentage
Method: as §1, §2, §3, §4, §5

HOP-62 = conditions: Homo sapiens, HOP-62, Non-Small Cell Lung Cancer, 10 µM one dose, 48 h, read-out: growth percentage
Method: as §1, §2, §3, §4, §5

K-562 = conditions: Homo sapiens, K562, K-562, Leukemia, 10 µM one dose, 48 h, read-out: growth percentage
Method: as §1, §2, §3, §4, §5

NCI-H460 = conditions: Homo sapiens, NCI-H460, Non-Small Cell Lung Cancer, 10 µM one dose, 48 h, read-out: growth percentage
Method: as §1, §2, §3, §4, §5

HCT-116 = conditions: Homo sapiens, HCT-116, Colon Cancer, 10 µM one dose, 48 h, read-out: growth percentage
Method: as §1, §2, §3, §4, §5

SW-620 = conditions: Homo sapiens, SW-620, Colon Cancer, 10 µM one dose, 48 h, read-out: growth percentage
Method: as §1, §2, §3, §4, §5

SF-295 = conditions: Homo sapiens, SF-295, CNS Cancer, 10 µM one dose, 48 h, read-out: growth percentage
Method: as §1, §2, §3, §4, §5

SN12C = conditions: Homo sapiens, Renal Cancer, 10 µM one dose, 48 h, read-out: growth percentage
Method: as §1, §2, §3, §4, §5

HL-60(TB) = conditions: Homo sapiens, Leukemia, 10 µM one dose, 48 h, read-out: growth percentage
Method: as §1, §2, §3, §4, §5

MALME-3M = conditions: Homo sapiens, Melanoma, 10 µM one dose, 48 h, read-out: growth percentage
Method: as §1, §2, §3, §4, §5

U251 = conditions: Homo sapiens, U-251, U251, CNS Cancer, 10 µM one dose, 48 h, read-out: growth percentage
Method: as §1, §2, §3, §4, §5

UACC-257 = conditions: Homo sapiens, UACC-257, Melanoma, 10 µM one dose, 48 h, read-out: growth percentage
Method: as §1, §2, §3, §4, §5

Row | Structure (SMILES) | activity at 10 µM (SK-OV-3) | activity at 10 µM (ACHN) | activity at 10 µM (OVCAR-5) | activity at 10 µM (NCI-H226) | activity at 10 µM (COLO 205) | activity at 10 µM (CCRF-CEM) | activity at 10 µM (HT29) | activity at 10 µM (MDA-MB-231/ATCC) | activity at 10 µM (OVCAR-3) | activity at 10 µM (NCI-H322M) | activity at 10 µM (CAKI-1) | activity at 10 µM (HOP-62) | activity at 10 µM (K-562) | activity at 10 µM (NCI-H460) | activity at 10 µM (HCT-116) | activity at 10 µM (SW-620) | activity at 10 µM (SF-295) | activity at 10 µM (SN12C) | activity at 10 µM (HL-60(TB)) | activity at 10 µM (MALME-3M) | other results
1 | Cc1nn(-c2ccc(Br)cc2)c2nc(C(F)(F)F)nc(Nc3ccc(NCc4c(-c5ccccc5)no[n+]4[O-])cc3)c12 [12c, 3-(((4-((1-(4-bromophenyl)-3-methyl-6-(trifluoromethyl)-1H-pyrazolo[3,4-d]pyrimidin-4-yl)amino)phenyl)amino)methyl)-4-phenyl-1,2,5-oxadiazole 2-oxide] | 82.7% | 68.1% | 89.5% | 75% | 73.2% | 60.4% | 70.4% | 65.9% | 91.6% | 85.1% | 55% | 68.3% | 51.4% | 46.6% | 31.9% | 79.7% | 57.5% | 76.2% | 83.2% | 77.7% | activity at 10 µM (U251): 54.1%; activity at 10 µM (UACC-257): 95.7%
2 | O=c1[nH]c(CCl)nc2c1cnn2-c1ccccc1 [13a] | 106% | 96.7% | 111% | 110% | 114% | 101% | 115% | 101% | 95.9% | 101% | 97.6% | 125% | 87.5% | 101% | 94.9% | 102% | 110% | 99.8% | 109% | -38.5% | activity at 10 µM (U251): 93.7%; activity at 10 µM (UACC-257): 99%
3 | O=c1[nH]c(CNc2ccc(NCc3c(-c4ccccc4)no[n+]3[O-])cc2)nc2c1cnn2-c1ccccc1 [14a, 3-(((4-(((4-oxo-1-phenyl-4,5-dihydro-1H-pyrazolo[3,4-d]pyrimidin-6-yl)methyl)amino)phenyl)amino)methyl)-4-phenyl-1,2,5-oxadiazole 2-oxide] | 60.6% | 70.4% | 64.3% | 77.2% | 101% | 57.9% | 92% | 72.5% | 73.5% | 80.2% | 55.1% | 105% | 49.8% | 64.2% | 49.6% | 92.8% | 71.8% | 79% | 63.1% | 63.6% | activity at 10 µM (U251): 76.1%; activity at 10 µM (UACC-257): 39%
4 | Cc1nn(-c2ccccc2)c2nc(CNc3ccc(NCc4c(-c5ccccc5)no[n+]4[O-])cc3)[nH]c(=O)c12 [14b, 3-(((4-(((3-methyl-4-oxo-1-phenyl-4,5-dihydro-1H-pyrazolo[3,4-d]pyrimidin-6-yl)methyl)amino)phenyl)amino)methyl)-4-phenyl-1,2,5-oxadiazole 2-oxide] | 85.4% | 88.8% | 95.4% | 101% | 116% | 78.8% | 107% | 82.7% | 87.6% | 89% | 67.1% | 110% | 75.8% | 90% | 79% | 110% | 103% | 89.4% | 93.7% | 74.1% | activity at 10 µM (U251): 94.6%; activity at 10 µM (UACC-257): 90.1%
5 | Cc1nn(-c2ccc(Br)cc2)c2nc(CNc3ccc(NCc4c(-c5ccccc5)no[n+]4[O-])cc3)[nH]c(=O)c12 [14c, 3-(((4-(((1-(4-bromophenyl)-3-methyl-4-oxo-4,5-dihydro-1H-pyrazolo[3,4-d]pyrimidin-6-yl)methyl)amino)phenyl)amino)methyl)-4-phenyl-1,2,5-oxadiazole 2-oxide] | 107% | 96.9% | 110% | 109% | 115% | 105% | 110% | 96.5% | 93.9% | 104% | 90.2% | 116% | 111% | 107% | 93.8% | 111% | 115% | 98.8% | 103% | 92.5% | activity at 10 µM (U251): 99.1%; activity at 10 µM (UACC-257): 101%
6 | Nc1ccc(NCc2c(-c3ccccc3)no[n+]2[O-])cc1 [compound 11, 3-(((4-aminophenyl)amino)methyl)-4-phenyl-1,2,5-oxadiazole 2-oxide] | 105% | 104% | 116% | 114% | 121% | 83.4% | 111% | 104% | 111% | 103% | 108% | 136% | 99.1% | 101% | 98.4% | 115% | 117% | 109% | 95.5% | 100% | activity at 10 µM (U251): 102%; activity at 10 µM (UACC-257): 99.2%
